Reference: patent publication US20110263454A1, “Methods of Identifying Functional Characteristics of Promoters, Transcription Modifying Proteins and Transcription Modulating Agents” (Salk Institute for Biological Studies, priority 2008, published 2011)

Legend:
pre-adipocytes = conditions: treatment of pre-adipocytes; Hutley 2004, Newell 2006; cited from earlier work
TRAP expression = conditions: human peripheral mononuclear cells; Reddy 1996; cited from earlier work
[1] = tested on: FGF1A mRNA in white adipose tissue (WAT); test: FGF1A mRNA in white adipose tissue after PPARγ ligand treatment; type: in vivo; conditions: fed mice, oral 5 mg/kg for 3 days
Protocol: To test this hypothesis the expression of FGF1A in response to feeding, fasting and PPARγ ligand treatment was determined (FIG. 47, left panel).

## recombinant FGF1: recombinant FGF1, fibroblast growth factor polypeptide
pre-adipocytes
  effect on pre-adipocytes: increased proliferation and adipogenesis

## ferric protoporphyrin IX [hemin]
TRAP expression
  TRAP expression at the transcriptional level: inhibited

## CN(CCOc1ccc(CC2SC(=O)NC2=O)cc1)c1ccccn1 (stereo not drawn) [BRL, BRL49653 (Rosiglitazone)]
[1]
  mRNA levels of FGF1A: significantly increased
